Measurements reported in patent US20240174662A1, “SMALL MOLECULE INHIBITORS OF SALT INDUCIBLE KINASES” (Janssen Biotech, Inc., priority 2021, published 2024).

biological target: SIK2 (Homo sapiens (Human), UniProt Q9H0K1); test: SIK2 Enzymatic Assay Version 2 (High ATP); format: biochemical; settings: 3 mM ATP and 200 μM HDAC5tide final, ADP-Glo Max luminescence
Procedure, shortened: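 Luminescent ADP-Glo Max read-out: depletion reagent 2 h, then detection reagent 1 h. Before the reaction, compounds were incubated 30 min with enzyme added at 6 nM (twice final concentration), with all steps at room temperature.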

Sequence of SIK2 (Q9H0K1 whole entry, species assumed): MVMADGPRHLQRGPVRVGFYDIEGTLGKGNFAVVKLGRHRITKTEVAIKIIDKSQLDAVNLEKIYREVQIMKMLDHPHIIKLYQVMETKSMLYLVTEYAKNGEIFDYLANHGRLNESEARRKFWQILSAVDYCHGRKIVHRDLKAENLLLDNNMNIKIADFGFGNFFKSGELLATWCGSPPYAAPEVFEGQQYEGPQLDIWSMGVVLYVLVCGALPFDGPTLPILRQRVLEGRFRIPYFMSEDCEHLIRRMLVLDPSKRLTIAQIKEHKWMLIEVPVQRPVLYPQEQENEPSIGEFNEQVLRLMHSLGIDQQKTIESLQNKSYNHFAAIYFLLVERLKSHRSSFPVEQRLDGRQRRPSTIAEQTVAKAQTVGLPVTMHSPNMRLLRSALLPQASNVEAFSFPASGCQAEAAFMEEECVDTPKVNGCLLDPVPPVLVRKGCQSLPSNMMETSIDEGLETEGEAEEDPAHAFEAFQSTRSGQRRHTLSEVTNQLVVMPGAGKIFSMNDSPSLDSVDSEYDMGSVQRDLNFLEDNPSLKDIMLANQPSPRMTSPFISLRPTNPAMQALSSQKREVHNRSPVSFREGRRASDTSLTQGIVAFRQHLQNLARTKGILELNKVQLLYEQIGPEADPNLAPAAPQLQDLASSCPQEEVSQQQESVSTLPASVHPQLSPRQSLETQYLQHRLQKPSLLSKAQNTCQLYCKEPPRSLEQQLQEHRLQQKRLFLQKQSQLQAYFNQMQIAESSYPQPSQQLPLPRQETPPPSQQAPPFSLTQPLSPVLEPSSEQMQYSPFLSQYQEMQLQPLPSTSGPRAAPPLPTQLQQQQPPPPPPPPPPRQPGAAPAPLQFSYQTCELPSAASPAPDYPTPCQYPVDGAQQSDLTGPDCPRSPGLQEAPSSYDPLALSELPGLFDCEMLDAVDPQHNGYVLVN

| IC50 [nM] | SMILES |
| --- | --- |
| < 0.847 | Cc1cc(Nc2cc3cc(-c4c(OC[C@H]5CCN5C)cnn4C)ccn3n2)nnc1C [Example 17, N-(5,6-Dimethylpyridazin-3-yl)-5-[2-methyl-4-[[(2R)-1-methylazetidin-2-yl]methoxy]pyrazol-3-yl]pyrazolo[1,5-a]pyridin-2-amine] |
| 19.6 | CN1CC(C)(OCc2cnn(C)c2-c2ccn3nc(NC(=O)C4CC4)cc3c2)C1 [Example 192, N-[5-[4-[(1,3-dimethylazetidin-3-yl)oxymethyl]-2-methyl-pyrazol-3-yl]pyrazolo[1,5-a]pyridin-2-yl]cyclopropanecarboxamide] |
| 14 | Cn1ncc(OC[C@H]2CNCCO2)c1-c1ccn2nc(NC(=O)C3CC3)cc2c1 [Example 6, N-[5-[2-methyl-4-[[(2R)-morpholin-2-yl]methoxy]pyrazol-3-yl]pyrazolo[1,5-a]pyridin-2-yl]cyclopropanecarboxamide] |
| 14.6 | Cc1cc(Nc2cc3cc(-c4c(OC[C@H]5CCN5)cnn4C)ccn3n2)nc(C)n1 [Example 42, 5-[4-[[(2R)-azetidin-2-yl]methoxy]-2-methyl-pyrazol-3-yl]-N-(2,6-dimethylpyrimidin-4-yl)pyrazolo[1,5-a]pyridin-2-amine] |
| 135 | CN1CC[C@H](Oc2cnn(C)c2-c2ccn3nc(Nc4ccccn4)cc3c2)C1 [Example 452, 5-[2-methyl-4-[(3S)-1-methylpyrrolidin-3-yl]oxy-pyrazol-3-yl]-N-(2-pyridyl)pyrazolo[1,5-a]pyridin-2-amine] |
| 23.5 | CN1C[C@H](c2ccccc2)C[C@@H]1COc1cnn(C)c1-c1ccn2nc(NC(=O)C3CC3)cc2c1 [Example 257, N-[5-[2-methyl-4-[[(2R,4S)-1-methyl-4-phenyl-pyrrolidin-2-yl]methoxy]pyrazol-3-yl]pyrazolo[1,5-a]pyridin-2-yl]cyclopropanecarboxamide] |
| 0.9 | CCN1CC[C@@H]1COc1cnn(C)c1-c1ccn2nc(Nc3ccc(=O)n(C)n3)cc2c1 [Example 170, 6-[[5-[4-[[(2R)-1-ethylazetidin-2-yl]methoxy]-2-methyl-pyrazol-3-yl]pyrazolo[1,5-a]pyridin-2-yl]amino]-2-methyl-pyridazin-3-one] |
| 2.9 | Cc1cncc(Nc2cc3cc(-c4c(CO[C@H]5CN(C)C[C@H]5C)cnn4C)ccn3n2)n1 (stereo in doubt) [Example 370, CIS-Rac-5-[4-[(1,4-dimethylpyrrolidin-3-yl)oxymethyl]-2-methyl-pyrazol-3-yl]-N-(6-methylpyrazin-2-yl)pyrazolo[1,5-a]pyridin-2-amine] |
| 424 | Cc1onc(OC2CN(C)C2)c1-c1ccn2nc(NC(=O)C3CC3)cc2c1 [Example 494, N-[5-[5-methyl-3-(1-methylazetidin-3-yl)oxy-isoxazol-4-yl]pyrazolo[1,5-a]pyridin-2-yl]cyclopropanecarboxamide] |
| 74.3 | Cc1cc(Nc2cc3cc(-c4c(OC[C@@H]5CC6(CCCC6)CO5)cnn4C)ccn3n2)nc(C)n1 (single isomer, unassigned) [Example 443, (*S)—N-(2,6-dimethylpyrimidin-4-yl)-5-[2-methyl-4-(8-oxaspiro[4.4]nonan-7-ylmethoxy)pyrazol-3-yl]pyrazolo[1,5-a]pyridin-2-amine] |
| 174 | COC1(COc2cnn(C)c2-c2ccn3nc(NC(=O)C4CC4)cc3c2)CN(C)C1 [Example 406, N-[5-[4-[(3-methoxy-1-methyl-azetidin-3-yl)methoxy]-2-methyl-pyrazol-3-yl]pyrazolo[1,5-a]pyridin-2-yl]cyclopropanecarboxamide] |
| < 0.847 | Cc1cc(Nc2cc3cc(-c4c(OC[C@H]5CCN5C)cnn4C)ccn3n2)nc(C(F)F)n1 [Example 102, N-[2-(difluoromethyl)-6-methyl-pyrimidin-4-yl]-5-[2-methyl-4-[[(2R)-1-methylazetidin-2-yl]methoxy]pyrazol-3-yl]pyrazolo[1,5-a]pyridin-2-amine] |
| 67.3 | Cc1cc(Nc2cc3cc(-c4c(O[C@@H]5CCN(C)[C@H]5C)cnn4C)ccn3n2)nc(C)n1 [Example 354, N-(2,6-dimethylpyrimidin-4-yl)-5-[4-[(2S,3R)-1,2-dimethylpyrrolidin-3-yl]oxy-2-methyl-pyrazol-3-yl]pyrazolo[1,5-a]pyridin-2-amine] |
| 236 | Cc1onc(OC2CCN(C)CC2)c1-c1ccn2nc(NC(=O)C3CC3)cc2c1 [Example 493, N-[5-[5-methyl-3-[(1-methyl-4-piperidyl)oxy]isoxazol-4-yl]pyrazolo[1,5-a]pyridin-2-yl]cyclopropanecarboxamide] |
| 471 | Cc1nc(C)c(C)c(Nc2cc3cc(-c4c(OC[C@H]5CCN5C)cnn4C)ccn3n2)n1 [Example 57, 5-[2-methyl-4-[[(2R)-1-methylazetidin-2-yl]methoxy]pyrazol-3-yl]-N-(2,5,6-trimethylpyrimidin-4-yl)pyrazolo[1,5-a]pyridin-2-amine] |
| 43.1 | CN1CC[C@H](Oc2cnn(C)c2-c2ccn3nc(NC(=O)C4CC4)cc3c2)C1 [Example 105, N-[5-[2-methyl-4-[(3S)-1-methylpyrrolidin-3-yl]oxy-pyrazol-3-yl]pyrazolo[1,5-a]pyridin-2-yl]cyclopropanecarboxamide] |

| IC50 [nM] | SMILES |
| --- | --- |
| 86 | Cn1ncc(OC2CCNCC2)c1-c1ccn2nc(NC(=O)C3CC3)cc2c1 [Example 407, N-[5-[2-methyl-4-(4-piperidyloxy)pyrazol-3-yl]pyrazolo[1,5-a]pyridin-2-yl]cyclopropanecarboxamide] |
| 73.6 | Cn1ncc(OC[C@@H]2CNC[C@H]2O)c1-c1ccn2nc(NC(=O)C3CC3)cc2c1 [Example 416, N-[5-[4-[[(3S,4S)-4-hydroxypyrrolidin-3-yl]methoxy]-2-methyl-pyrazol-3-yl]pyrazolo[1,5-a]pyridin-2-yl]cyclopropanecarboxamide] |
| 32.4 | Cc1snc(OC[C@H]2CNCCO2)c1-c1ccn2nc(NC(=O)C3CC3)cc2c1 [Example 331, N-[5-[5-methyl-3-[[(2R)-morpholin-2-yl]methoxy]isothiazol-4-yl]pyrazolo[1,5-a]pyridin-2-yl]cyclopropanecarboxamide] |
| < 0.847 | CCN1CC[C@@H]1COc1cnn(C)c1-c1ccn2nc(Nc3cc(C)nc(C4CC4)n3)cc2c1 [Example 171, N-(2-cyclopropyl-6-methyl-pyrimidin-4-yl)-5-[4-[[(2R)-1-ethylazetidin-2-yl]methoxy]-2-methyl-pyrazol-3-yl]pyrazolo[1,5-a]pyridin-2-amine] |
| 444 | CO[C@@H]1CNC[C@@H]1Oc1cnn(C)c1-c1ccn2nc(NC(=O)C3CC3)cc2c1 (single isomer, unassigned) [Example 40, N-(5-(4-(((3*S,4*R)-4-methoxypyrrolidin-3-yl)oxy)-1-methyl-1H-pyrazol-5-yl)pyrazolo[1,5-a]pyridin-2-yl)cyclopropanecarboxamide] |
| 54.4 | C[C@H]1[C@H](COc2cnn(C)c2-c2ccn3nc(NC(=O)C4CC4)cc3c2)CN1C (single isomer, unassigned) [Example 337, (2*S, 3*R)—N-[5-[4-[(1,2-dimethylazetidin-3-yl)methoxy]-2-methyl-pyrazol-3-yl]pyrazolo[1,5-a]pyridin-2-yl]cyclopropanecarboxamide] |
| 432 | CN1CCC(Oc2cnn(C)c2-c2ccn3nc(NC(=O)C4CC4)cc3c2)CC1 [Example 492, N-[5-[2-methyl-4-[(1-methyl-4-piperidyl)oxy]pyrazol-3-yl]pyrazolo[1,5-a]pyridin-2-yl]cyclopropanecarboxamide] |
| < 0.847 | Cc1cc(Nc2cc3cc(-c4c(OC[C@H]5CCN5C)cnn4C)ccn3n2)nc(-c2cccnc2)n1 [Example 116, 5-[2-methyl-4-[[(2R)-1-methylazetidin-2-yl]methoxy]pyrazol-3-yl]-N-[6-methyl-2-(3-pyridyl)pyrimidin-4-yl]pyrazolo[1,5-a]pyridin-2-amine] |
| 107 | Cc1ccc(Nc2cc3cc(-c4c(O[C@H]5CCN(C)C5)cnn4C)ccn3n2)cn1 [Example 451, 5-[2-methyl-4-[(3S)-1-methylpyrrolidin-3-yl]oxy-pyrazol-3-yl]-N-(6-methyl-3-pyridyl)pyrazolo[1,5-a]pyridin-2-amine] |
| 51.9 | Cn1ncc(CO[C@H]2CCNC2)c1-c1ccn2nc(NC(=O)C3CC3)cc2c1 [Example 363, N-[5-[2-methyl-4-[[(3S)-pyrrolidin-3-yl]oxymethyl]pyrazol-3-yl]pyrazolo[1,5-a]pyridin-2-yl]cyclopropanecarboxamide] |
| 106 | Cc1cc(Nc2cc3cc(-c4c(O[C@H]5CCN[C@@H]5C)cnn4C)ccn3n2)nc(C)n1 [Example 442, N-(2,6-dimethylpyrimidin-4-yl)-5-[2-methyl-4-[(2R,3S)-2-methylpyrrolidin-3-yl]oxy-pyrazol-3-yl]pyrazolo[1,5-a]pyridin-2-amine] |
| 15.2 | Cc1cc(Nc2cc3cc(-c4c(OC[C@@H](O)C5(C)CC5)cnn4C)ccn3n2)nc(C)n1 [Example 301, (1S)-2-[5-[2-[(2,6-dimethylpyrimidin-4-yl)amino]pyrazolo[1,5-a]pyridin-5-yl]-1-methyl-pyrazol-4-yl]oxy-1-(1-methylcyclopropyl)ethanol] |
| 22.3 | CN1CC[C@@H]1COc1cnn(C)c1-c1ccn2nc(NC(=O)[C@H]3C[C@@H]3c3ccccc3)cc2c1 (racemic) [Example 71, trans-N-[5-[2-methyl-4-[((2R)-1-methylazetidin-2-yl)methoxy]pyrazol-3-yl]pyrazolo[1,5-a]pyridin-2-yl]-2-phenyl-cyclopropanecarboxamide] |
| 97.8 | CCn1ncc(OC[C@@H]2CCN(C)C2)c1-c1ccn2nc(NC(=O)C3CC3)cc2c1 [Example 398, N-[5-[2-ethyl-4-[[(3R)-1-methylpyrrolidin-3-yl]methoxy]pyrazol-3-yl]pyrazolo[1,5-a]pyridin-2-yl]cyclopropanecarboxamide] |
| 16.1 | Cc1cc(Nc2cc3cc(-c4c(OC[C@H]5C[C@H](C)CN5C)cnn4C)ccn3n2)nc(C)n1 [Example 305, N-(2,6-dimethylpyrimidin-4-yl)-5-[4-[[(2R,4S)-1,4-dimethylpyrrolidin-2-yl]methoxy]-2-methyl-pyrazol-3-yl]pyrazolo[1,5-a]pyridin-2-amine] |
